According to ChEMBL document CHEMBL2311537, “Antiviral activity of (+)-sattabacin against varicella zoster” (Bioorg Med Chem Lett, 2013):

Tests used:
[1] = Antiviral coefficient, ratio of CC50 for human MRC5 cells to IC50 for Varicella zoster virus Ellen infected in human MRC5 cells; assay type: functional
[2] = test system: MRC5; experiment: Effect on MRPS18B gene expression in human MRC5 cells infected with Varicella zoster virus Ellen at 100 uM after 24 hrs by DNA microarray analysis; assay type: functional
[3] = test system: MRC5; experiment: Effect on ACVR1 gene expression in human MRC5 cells infected with Varicella zoster virus Ellen at 100 uM after 24 hrs by DNA microarray analysis; assay type: functional
[4] = test system: MRC5; experiment: Effect on TPM2 gene expression in human MRC5 cells infected with Varicella zoster virus Ellen at 100 uM after 24 hrs by DNA microarray analysis; assay type: functional
[5] = test system: MRC5; experiment: Effect on EIF2B1 gene expression in human MRC5 cells infected with Varicella zoster virus Ellen at 100 uM after 24 hrs by DNA microarray analysis; assay type: functional
[6] = test system: MRC5; experiment: Effect on RNF43 gene expression in human MRC5 cells infected with Varicella zoster virus Ellen at 100 uM after 24 hrs by DNA microarray analysis; assay type: functional
[7] = test system: MRC5; experiment: Effect on CACNB4 gene expression in human MRC5 cells infected with Varicella zoster virus Ellen at 100 uM after 24 hrs by DNA microarray analysis; assay type: functional
[8] = test system: MRC5; experiment: Effect on DDX27 gene expression in human MRC5 cells infected with Varicella zoster virus Ellen at 100 uM after 24 hrs by DNA microarray analysis; assay type: functional
[9] = test system: MRC5; experiment: Effect on CXCL1 gene expression in human MRC5 cells infected with Varicella zoster virus Ellen at 100 uM after 24 hrs by DNA microarray analysis; assay type: functional
[10] = test system: MRC5; experiment: Effect on SAP18 gene expression in human MRC5 cells infected with Varicella zoster virus Ellen at 100 uM after 24 hrs by DNA microarray analysis; assay type: functional
[11] = Cytotoxicity against human MRC5 cells assessed as inhibition of cell viability after 24 hrs by MTT assay; assay type: cell-based
[12] = test system: MRC5; experiment: Effect on SNRPB gene expression in human MRC5 cells infected with Varicella zoster virus Ellen at 100 uM after 24 hrs by DNA microarray analysis; assay type: functional
[13] = test system: MRC5; experiment: Effect on PSME1 gene expression in human MRC5 cells infected with Varicella zoster virus Ellen at 100 uM after 24 hrs by DNA microarray analysis; assay type: functional
[14] = test system: MRC5; experiment: Effect on SLC20A2 gene expression in human MRC5 cells infected with Varicella zoster virus Ellen at 100 uM after 24 hrs by DNA microarray analysis; assay type: functional
[15] = test system: MRC5; experiment: Effect on ADCY8 gene expression in human MRC5 cells infected with Varicella zoster virus Ellen at 100 uM after 24 hrs by DNA microarray analysis; assay type: functional
[16] = test system: MRC5; experiment: Effect on RPL37A gene expression in human MRC5 cells infected with Varicella zoster virus Ellen at 100 uM after 24 hrs by DNA microarray analysis; assay type: functional
[17] = test system: MRC5; experiment: Effect on ACTA1 gene expression in human MRC5 cells infected with Varicella zoster virus Ellen at 100 uM after 24 hrs by DNA microarray analysis; assay type: functional
[18] = test system: MRC5; experiment: Cytotoxicity against human MRC5 cells assessed as inhibition of cell viability at >1000 uM after 24 hrs by MTT assay; assay type: cell-based; settings: mrc5, 24 h
[19] = test system: MRC5; experiment: Effect on KCNS3 gene expression in human MRC5 cells infected with Varicella zoster virus Ellen at 100 uM after 24 hrs by DNA microarray analysis; assay type: functional
[20] = test system: MRC5; experiment: Effect on CDC27 gene expression in human MRC5 cells infected with Varicella zoster virus Ellen at 100 uM after 24 hrs by DNA microarray analysis; assay type: functional
[21] = test system: MRC5; experiment: Effect on KRT5 gene expression in human MRC5 cells infected with Varicella zoster virus Ellen at 100 uM after 24 hrs by DNA microarray analysis; assay type: functional
[22] = test system: MRC5; experiment: Effect on ZMYND15 gene expression in human MRC5 cells infected with Varicella zoster virus Ellen at 100 uM after 24 hrs by DNA microarray analysis; assay type: functional
[23] = test system: Human alphaherpesvirus 3; experiment: Antiviral activity against Varicella zoster virus Ellen infected in human MRC5 cells assessed as inhibition of viral replication by viral reduction plaque assay; assay type: functional, organism-based; settings: Human alphaherpesvirus 3, Ellen
[24] = Antiviral coefficient, ratio of CC90 for human MRC5 cells to IC90 for Varicella zoster virus Ellen infected in human MRC5 cells; assay type: functional
[25] = test system: MRC5; experiment: Effect on MT1M gene expression in human MRC5 cells infected with Varicella zoster virus Ellen at 100 uM after 24 hrs by DNA microarray analysis; assay type: functional

## CC(C)CC(=O)[C@@H](O)Cc1ccccc1
[1]
  Ratio CC50/IC50: 13.2
[2]
  fold change (FC): -1.168
[3]
  fold change (FC): -1.105
[4]
  fold change (FC): -1.336
[5]
  fold change (FC): -1.402
[6]
  fold change (FC): -1.092
[7]
  fold change (FC): 0.741
[8]
  fold change (FC): 0.642
[9]
  fold change (FC): 0.544
[10]
  fold change (FC): -1.128
[11]
  CC50 at 24 h: 765 µM
  CC90 at 24 h: 3880 µM
[12]
  fold change (FC): -1.193
[13]
  fold change (FC): 0.576
[14]
  fold change (FC): 0.675
[15]
  fold change (FC): -1.328
[16]
  fold change (FC): -1.282
[17]
  fold change (FC): 0.545
[18]
  Activity: Toxic
[19]
  fold change (FC): 0.673
[20]
  fold change (FC): 0.823
[21]
  fold change (FC): 0.566
[22]
  fold change (FC): 0.577
[23]
  IC50: 58 µM
  IC90: 109 µM
[24]
  Ratio: 35.6
[25]
  fold change (FC): -1.153

## Nc1nc2c(ncn2COCCO)c(=O)[nH]1 [ACYCLOVIR]
[23]
  IC50: 13 µM

## Nc1nc(O)c2ncn(CCC(CO)CO)c2n1 [PENCICLOVIR]
[23]
  IC50: 16 µM
